In ChEMBL document CHEMBL1124680, “Cyclic enkephalin analogues containing alpha-amino-beta-mercapto-beta,beta-pentamethylenepropionic acid at positions 2 or 5” (J Med Chem, 1989):
pIC50, pKi: −log10 of the molar value.

Tests used:
[1] = (§1) Ratio of inhibition of electrically induced contractions in GPI and MVD
[2] = species: Mus musculus; test: The compound was tested In vitro for the ability to inhibit electrically induced contractions of the mouse vas deferens; format: functional
[3] = target: Kappa-type opioid receptor (Rattus norvegicus, UniProt P34975); test: The compound was tested for the ability to displace opioid receptor kappa specific radioligand [3H]DADLE
[4] = species: Cavia porcellus; test: The compound was tested In vitro for the ability to inhibit electrically induced contractions of the guinea pig ileum; format: functional
[5] = target: T1, Delta-type opioid receptor (Rattus norvegicus, UniProt P33533); test: The compound was tested for the ability to displace opioid receptor delta specific radioligand [3H]-DSLET
T1 sequence (P33533 whole entry): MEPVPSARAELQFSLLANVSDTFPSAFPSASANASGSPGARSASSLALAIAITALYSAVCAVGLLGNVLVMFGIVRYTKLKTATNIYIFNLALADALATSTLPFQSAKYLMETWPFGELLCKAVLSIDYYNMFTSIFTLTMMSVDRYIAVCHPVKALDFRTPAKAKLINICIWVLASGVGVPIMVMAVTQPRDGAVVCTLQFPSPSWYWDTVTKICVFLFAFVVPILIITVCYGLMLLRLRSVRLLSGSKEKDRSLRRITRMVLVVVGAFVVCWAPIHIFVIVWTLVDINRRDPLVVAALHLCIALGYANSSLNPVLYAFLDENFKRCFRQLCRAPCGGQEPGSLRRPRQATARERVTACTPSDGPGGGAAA

[6] = target: T1, Delta-type opioid receptor; test: The compound was tested for the ability to displace receptor specific radioligand [3H]DPDPE
[7] = target: T2, Mu-type opioid receptor (Rattus norvegicus, UniProt P33535); test: The compound was tested for the ability to displace mu-receptor specific radioligand [3H]DAGO
T2 sequence (P33535 whole entry): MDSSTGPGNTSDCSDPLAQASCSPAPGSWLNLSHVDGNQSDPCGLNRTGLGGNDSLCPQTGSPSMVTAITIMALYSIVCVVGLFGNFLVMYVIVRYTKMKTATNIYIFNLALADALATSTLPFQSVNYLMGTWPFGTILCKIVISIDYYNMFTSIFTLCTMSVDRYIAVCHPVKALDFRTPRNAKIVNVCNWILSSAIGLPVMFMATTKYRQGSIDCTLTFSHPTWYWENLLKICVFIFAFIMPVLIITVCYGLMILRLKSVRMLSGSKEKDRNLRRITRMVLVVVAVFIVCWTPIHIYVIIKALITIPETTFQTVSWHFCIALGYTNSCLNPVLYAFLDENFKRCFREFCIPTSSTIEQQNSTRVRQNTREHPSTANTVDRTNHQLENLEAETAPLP

[8] = target: T2, Mu-type opioid receptor; test: The compound was tested for the ability to displace Opioid receptor mu 1 specific radioligand [3H]DAGO
[9] = target: T1, Delta-type opioid receptor; test: The compound was tested for the ability to displace delta-receptor specific radioligand [3H]DSLET
[10] = target: T1, Delta-type opioid receptor; test: The compound was tested for the ability to displace delta-receptor specific radioligand [3H]DPDPE
[11] = as §1; format: functional

In the case of N[C@@H](Cc1ccc(O)cc1)C(=O)N[C@H]1C(=O)NCC(=O)N[C@@H](Cc2ccccc2)C(=O)N[C@H](C(=O)O)CSSC12CCCCC2 (stereo in doubt; 6) [listing 1 of 2 here], the Ratio [1] was < 16.7.
Work on N[C@@H](Cc1ccc(O)cc1)C(=O)N[C@@H]1CSSC2(CCCCC2)[C@H](C(=O)O)NC(=O)[C@H](Cc2ccccc2)NC(=O)CNC1=O yielded a pIC50 ([2]; Mus musculus, Vas deferens) of 10.25.
With CC1(C)SSC[C@H](C(=O)O)NC(=O)[C@H](Cc2ccccc2)NC(=O)CNC(=O)[C@@H]1NC(=O)[C@@H](N)Cc1ccc(O)cc1 the pKi [3] was […] and the pIC50 ([4]; Cavia porcellus, Ileum) was 5.87.
With N[C@@H](Cc1ccc(O)cc1)C(=O)N[C@H]1C(=O)NCC(=O)N[C@@H](Cc2ccccc2)C(=O)N[C@H](C(=O)O)CSSC12CCCCC2 (stereo in doubt; 5) [listing 1 of 2 here] the pKi [5] was 7.50, the pKi [6] was 7.82 and the pIC50 [2] was < 5.69. The pIC50 [4] was 4.52 and the pKi [7] was 5.74.
In the case of N[C@@H](Cc1ccc(O)cc1)C(=O)N[C@H]1C(=O)NCC(=O)N[C@@H](Cc2ccccc2)C(=O)N[C@H](C(=O)O)CSSC12CCCCC2 (stereo in doubt; 6) [listing 2 of 2 here], the pKi [8] was 5.40, the pKi [9] was 6.17 and the pIC50 [2] was < 5.37. The pIC50 [4] was 4.15 and the pKi [10] was 6.41.
In the case of CC1(C)SSC[C@@H](NC(=O)[C@@H](N)Cc2ccc(O)cc2)C(=O)NCC(=O)N[C@@H](Cc2ccccc2)C(=O)N[C@@H]1C(=O)O, the pKi [3] was […] and the pIC50 ([4]; Cavia porcellus, Ileum) was 7.17.
CC1(C)SSC[C@@H](NC(=O)[C@@H](N)Cc2ccc(O)cc2)C(=O)NCC(=O)N[C@@H](Cc2ccccc2)C(=O)N[C@H]1C(=O)O gave a pKi [3] of […] and a pIC50 ([4]; Cavia porcellus, Ileum) of 7.40.
Molecule N[C@@H](Cc1ccc(O)cc1)C(=O)N[C@@H]1CSSC2(CCCCC2)[C@@H](C(=O)O)NC(=O)[C@H](Cc2ccccc2)NC(=O)CNC1=O has a pIC50 ([2]; Mus musculus, Vas deferens) of 10.13 and a pIC50 ([4]; Cavia porcellus, Ileum) of 7.88.
In the case of N[C@@H](Cc1ccc(O)cc1)C(=O)N[C@H]1C(=O)NCC(=O)N[C@@H](Cc2ccccc2)C(=O)N[C@H](C(=O)O)CSSC12CCCCC2 (stereo in doubt; 5) [listing 2 of 2 here], the Ratio [11] was < 14.7.
